Square brackets hold non-standard residues; d marks the D form. Peptide text beside a SMILES is read from it. Bip = N[C@@H](Cc1ccc(-c2ccccc2)cc1)C(=O)O
Experiments:
[1] = in vitro; format: in vitro ADME; settings: mouse
Experimental: The stability assay of UP-5 relied on a previously reported stability test procedure employing mouse plasma or mouse serum (PAA Laboratories, Pasching, Austria). Briefly, a stock solution of the peptide was prepared in 5% aqueous DMSO. The highest DMSO concentration was less than 0.5% after dilution in order to have a final concentration of peptide equal to 1 g/L. Each peptide was dissolved in plasma or serum at a final concentration corresponding to 75 µg/mL and incubated at 37 °C (750 rpm, Eppendorf, Hamburg, Germany). After different time periods, aliquots (47.5 µL) were taken and proteins were precipitated by addition of 150 µL of a mixture composed acetonitrile, water, and formic acid (89:10:1 by volume). The samples were incubated on ice for 45 min and centrifuged for 10 min at 13,000× g (Eppendorf, Hamburg, Germany). […] The second supernatant (155 µL) was collected and dried under vacuum. The samples were dissolved in 3% aqueous acetonitrile containing, 0.1% formic acid, and were analyzed using an Agilent 1100 HPLC system (Agilent Technologies, Santa Clara, CA, USA), coupled online to an Esquire HCT mass spectrometer (Bruker Daltonik GmbH, Bremen, Germany) equipped with an analytical Jupiter C18-reversed phase column (2 mm inner diameter, 150 mm length, 5 µm particle size, […]). Eluent A contained 0.1% formic acid in water and Eluent B was 60% aqueous acetonitrile containing 0.1% formic acid.

[2] = test system: S. aureus (ATCC 29213); assay: Broth microdilution checkerboard, UP-5 with antibiotics; format: cell-based, Staphylococcus aureus; settings: S. aureus ATCC 29213, checkerboard, triplicate
Text: (§1) All bacterial susceptibility, biofilm, and synergistic assays of peptides, antibiotics, and peptides-antibiotics combinations used bacterial strains obtained from the American Type Tissue Culture Collection (ATCC, Manassas, VA, USA) that states the mechanism of resistance for each strain according to ATCC number. Gram-positive bacteria were represented by five strains, the wild type strain Staphylococcus aureus (ATCC 29213) and methicillin-resistant S. aureus (MRSA) (ATCC 33591) in addition to clinically isolated strains S. aureus (ATCC BAA-41& 43300) and Enterococcus faecalis (ATCC BAA-2316). The Gram-negative bacteria strains were represented by wild type strains of Escherichia coli (ATCC 25922 & 35218) and Pseudomonas aeruginosa (ATCC 27853) as well as the clinically isolated multidrug-resistant strain P. aeruginosa (ATCC BAA-2114). The bacteria were cultured onto Muller Hinton Agar (Scharlab, S.L, Barcelona, Spain). Mueller Hinton Broth (Oxoid Ltd., Basingstoke, UK) was used to prepare all bacterial suspensions and to dissolve the peptides and the antibiotics. The assay was performed in sterile 96-well polypropylene microtiter plates.
(§2) According to the broth microdilution checkerboard technique, the MIC and MBC values of peptide-antibiotics combinations against wild type and multidrug resistant bacterial strains were determined. Serial concentrations of peptide and each antibiotic were prepared in the range of 0.005–100 μM. In each well of a 96-well microtiter plate, 25 μL of each peptide concentration were added to 25 μL of each antibiotic concentration which is followed by adding 50 μL of diluted bacterial suspension (10^6 CFU/mL) to each well. The prepared concentrations of peptide and each antibiotic were arranged into rows and columns, respectively, in a 96-well microtiter plate according the checkerboard technique. Then as described previously (see Section 2.4.1), the procedure was followed. All MIC and MBC determinations of all assays were made in triplicate.
(§3) The fractional inhibitory concentration (FIC) is defined as the inhibitory concentration of the antimicrobial combination divided by that of the single antimicrobial component. To calculate FIC index for peptide-antibiotic combinations, the following equation was used:(1) FIC index=MIC of drug X in combination/MIC of drug X alone+MIC of drug Y in combination/MIC of drug Y alone
(§4) The FIC indices were interpreted as follows: ≤0.5: synergistic activity, 0.5–1: additive activity, 1–4 indifferent, >4: antagonism. Interpretation and assessment of the FIC indices were performed according to the broth microdilution checkerboard technique.

[3] = test system: S. aureus (ATCC 33591); assay: as above; format: cell-based, Staphylococcus aureus; settings: S. aureus ATCC 33591, checkerboard, triplicate
Text: as §1, §2, §3, §4

[4] = test system: S. aureus (ATCC 43300); assay: as above; format: cell-based, Staphylococcus aureus; settings: S. aureus ATCC 43300, checkerboard, triplicate
Text: as §1, §2, §3, §4

[5] = test system: S. aureus (ATCC BAA-41); assay: as above; format: cell-based, Staphylococcus aureus; settings: S. aureus ATCC BAA-41, checkerboard, triplicate
Text: as §1, §2, §3, §4

[6] = test system: Staphylococcus aureus (ATCC 29213); format: cell-based; settings: ATCC 29213, 24 h
Text: as §1
(§5) All bacterial susceptibility assays were conducted according to the microbroth dilution method outlined by the Clinical and Laboratory Standards Institute (CLSI) guidelines.
(§6) Briefly, pre-sterilized MHB was used as a growth medium for organisms obtained from stock media with glycerol. Bacterial cells were grown overnight in MHB and diluted to 10^6 CFU/mL in the same medium prior to use. For peptide, serial concentrations in the range of 0.5–100 μM were prepared. Then, 50 μL of each peptide concentration and 50 µL of diluted bacterial suspension were added to each well of a 96-well microtiter plate. Peptide solutions were prepared by dissolving the peptide in sterile MHB. Then, the plates were incubated overnight in a humidified atmosphere, and at 37 °C. Bacterial growth was determined by measuring the optical density (OD) at λ = 600 nm using an ELISA plate reader (Epoch, BioTek, Winooski, VT, USA) and the minimum inhibitory concentration (MIC) was determined.
(§7) As described in the previous section, the MIC and MBC values of antibiotics employed in this study were determined against subjected bacterial strains via preparing different concentrations of each antibiotic.

[7] = test system: P. aeruginosa (ATCC BAA-2114); format: cell-based, Pseudomonas aeruginosa; settings: ATCC BAA-2114, 24 h
Text: as §1, §5, §6, §7

[8] = UP-5 in combination with Ampicillin
[9] = UP-5 in combination with Chloramphenicol
[10] = UP-5 in combination with Erythromycin
[11] = UP-5 in combination with Levofloxacin
[12] = UP-5 in combination with Rifampicin

Molecule `N=C(N)NCCC[C@H](NC(=O)[C@H](Cc1ccc(-c2ccccc2)cc1)NC(=O)[C@H](CCCNC(=N)N)NC(=O)[C@H](Cc1ccc(-c2ccccc2)cc1)NC(=O)[C@@H](N)CCCNC(=N)N)C(=O)O` [UP-5] (H-R[Bip]R[Bip]R-OH) has a half-life at 75 µg/mL ([1]; plasma) of 2.88 h, a metabolised at 1 h, 75 µg/mL ([1]; plasma) of 27% and a metabolised at 4 h, 75 µg/mL ([1]; plasma) of 66%. The remaining at 1 h, 75 µg/mL ([1]; plasma) was 73%, the remaining at 4 h, 75 µg/mL ([1]; plasma) was 34% and the half-life at 75 µg/mL ([1]; serum) was less than 0.25 h. For the same molecule, the metabolised at 0.25 h, 75 µg/mL ([1]; serum) was greater than 80%, the “UP-5 MIC in Combination” value [2, 8] was 0.25 µM and the “UP-5 MIC in Combination” value [2, 9] was 2.5 µM. For the same molecule, the “UP-5 MIC in Combination” value [2, 10] was 10 µM, the “UP-5 MIC in Combination” value [2, 11] was 0.125 µM and the “UP-5 MIC in Combination” value [2, 12] was 10 µM. For the same molecule, the “UP-5 MIC in Combination” value [3, 8] was 1.25 µM, the “UP-5 MIC in Combination” value [3, 9] was 5 µM and the “UP-5 MIC in Combination” value [3, 10] was 0.125 µM. For the same molecule, the “UP-5 MIC in Combination” value [3, 11] was 0.125 µM, the “UP-5 MIC in Combination” value [3, 12] was 0.125 µM and the “UP-5 MIC in Combination” value [4, 8] was 7.5 µM. The “UP-5 MIC in Combination” value [4, 9] was 7.5 µM, the “UP-5 MIC in Combination” value [4, 10] was 7.5 µM and the “UP-5 MIC in Combination” value [4, 11] was 0.025 µM. For the same molecule, the “UP-5 MIC in Combination” value [4, 12] was 5 µM, the “UP-5 MIC in Combination” value [5, 8] was 7.5 µM and the “UP-5 MIC in Combination” value [5, 9] was 7.5 µM. For the same molecule, the “UP-5 MIC in Combination” value [5, 10] was 15 µM, the “UP-5 MIC in Combination” value [5, 11] was 15 µM and the “UP-5 MIC in Combination” value [5, 12] was 15 µM. The “MBC Value” [6] was 10 µM, the “MIC Value” [6] was 10 µM and the “MBC Value” [7] was 55 µM. The “MIC Value” [7] was 55 µM.
